ChEMBL document CHEMBL1201862, “PubChem BioAssay data set” (2004)
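1) Cells in 96-well plates. 2) Compound, 48 h, 5 concentrations. 3) Linear interpolation between surrounding doses. 4) Unreached endpoint = highest concentration. Abbreviation: GI50, concentration required for 50% inhibition of growth.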 Active and inactive are the calls of the source. Rule as the data show it: active = GI50 up to about 1.1 µM and inactive = higher.

Key:
Assay in all cases: NCI anticancer screen, dose series, 48 h
ACHN = test system: ACHN
BT-549 = test system: BT-549
CCRF-CEM = test system: CCRF-CEM
DU-145 = test system: DU-145
EKVX = test system: EKVX
HL-60 = test system: HL-60
KM12 = test system: KM12
M14 = test system: M14
MDA-MB-231 = test system: MDA-MB-231
Malme-3M = test system: Malme-3M
OVCAR-3 = test system: OVCAR-3
OVCAR-4 = test system: OVCAR-4
OVCAR-8 = test system: OVCAR-8
RXF 393 = test system: RXF 393
SK-MEL-2 = test system: SK-MEL-2
SK-MEL-5 = test system: SK-MEL-5
SK-OV-3 = test system: SK-OV-3
UACC-257 = test system: UACC-257
HCC 2998 = test system: HCC 2998
LOX IMVI = test system: LOX IMVI

Row | SMILES | GI50 (ACHN) | GI50 (BT-549) | GI50 (CCRF-CEM) | GI50 (DU-145) | GI50 (EKVX) | GI50 (HL-60) | GI50 (KM12) | GI50 (M14) | GI50 (MDA-MB-231) | GI50 (Malme-3M) | GI50 (OVCAR-3) | GI50 (OVCAR-4) | GI50 (OVCAR-8) | GI50 (RXF 393) | GI50 (SK-MEL-2) | GI50 (SK-MEL-5) | GI50 (SK-OV-3) | GI50 (UACC-257) | GI50 (HCC 2998) | GI50 (LOX IMVI)
1 | CCOC(=O)C(C)c1nc2cc(N3CCN(C)CC3)c(F)cc2[nH]c1=O (stereo not drawn) | > 100 µM (inactive) | > 100 µM (inactive) | > 100 µM (inactive) | > 100 µM (inactive) | > 100 µM (inactive) | > 100 µM (inactive) | > 100 µM (inactive) | > 100 µM (inactive) | > 100 µM (inactive) | 28.9 µM (inactive) | > 100 µM (inactive) | > 100 µM (inactive) | > 100 µM (inactive) | > 100 µM (inactive) | > 100 µM (inactive) | > 100 µM (inactive) | > 100 µM (inactive) | > 100 µM (inactive) |  | 
2 | COc1ccc(CC(N)c2ccc(OC)cc2)cc1 (stereo not drawn) | > 100 µM (inactive) | > 100 µM (inactive) | 70.5 µM (inactive) | > 100 µM (inactive) | > 100 µM (inactive) | 49.7 µM (inactive) | 50 µM (inactive) | 48 µM (inactive) | 84.9 µM (inactive) | 37.4 µM (inactive) | > 100 µM (inactive) | > 100 µM (inactive) | > 100 µM (inactive) | 72.1 µM (inactive) |  | 43.4 µM (inactive) | 71.4 µM (inactive) | 42 µM (inactive) | 18.3 µM (inactive) | 57.5 µM (inactive)
3 | CC(C)(C)C1=NC(=P(c2ccccc2)(c2ccccc2)c2ccccc2)C(=O)O1 | > 100 µM (inactive) | > 100 µM (inactive) | > 100 µM (inactive) | > 100 µM (inactive) | 22.5 µM (inactive) | > 100 µM (inactive) | > 100 µM (inactive) | > 100 µM (inactive) | > 100 µM (inactive) | 98.4 µM (inactive) |  |  | > 100 µM (inactive) | > 100 µM (inactive) | > 100 µM (inactive) | > 100 µM (inactive) | > 100 µM (inactive) | > 100 µM (inactive) |  | > 100 µM (inactive)
4 | C=C(C)CNC(=S)N(N)c1ccc(OC)cc1 | 39.2 µM (inactive) | > 100 µM (inactive) | 94 µM (inactive) | > 100 µM (inactive) | 82.2 µM (inactive) | > 100 µM (inactive) | 39.2 µM (inactive) | > 100 µM (inactive) | > 100 µM (inactive) | > 100 µM (inactive) | > 100 µM (inactive) | > 100 µM (inactive) | > 100 µM (inactive) | > 100 µM (inactive) |  | > 100 µM (inactive) | > 100 µM (inactive) | > 100 µM (inactive) | > 100 µM (inactive) | > 100 µM (inactive)
5 | CC(=C/C=C/C=C(C)\C=C\C=C(\C)C(=O)O)/C=C/C=C(/C)C(=O)O | > 100 µM (inactive) | > 100 µM (inactive) | > 100 µM (inactive) | > 100 µM (inactive) |  | 25.5 µM (inactive) | > 100 µM (inactive) | > 100 µM (inactive) | > 100 µM (inactive) | > 100 µM (inactive) | > 100 µM (inactive) | > 100 µM (inactive) | > 100 µM (inactive) | > 100 µM (inactive) | > 100 µM (inactive) | > 100 µM (inactive) | > 100 µM (inactive) | > 100 µM (inactive) |  | > 100 µM (inactive)
6 | O=c1oc2ccccc2cc1P(=O)(O)O | > 100 µM (inactive) | > 100 µM (inactive) | > 100 µM (inactive) | > 100 µM (inactive) | > 100 µM (inactive) | > 100 µM (inactive) |  | > 100 µM (inactive) | > 100 µM (inactive) | > 100 µM (inactive) | > 100 µM (inactive) | > 100 µM (inactive) | > 100 µM (inactive) | > 100 µM (inactive) | > 100 µM (inactive) | > 100 µM (inactive) |  | > 100 µM (inactive) | > 100 µM (inactive) | > 100 µM (inactive)
7 | O=C(c1cccnc1)N1N=C(c2ccc(Cl)cc2)CC1(O)c1cc(F)c(Cl)cc1Cl (stereo not drawn) | 18.8 µM (inactive) | 24.6 µM (inactive) | 13.3 µM (inactive) | 16.9 µM (inactive) | 17.5 µM (inactive) | 15.1 µM (inactive) | 28.8 µM (inactive) | 22 µM (inactive) | 15.1 µM (inactive) | 33.3 µM (inactive) | 6.5 µM (inactive) | 15.8 µM (inactive) | 25.1 µM (inactive) | 7.05 µM (inactive) | 22 µM (inactive) | 11.3 µM (inactive) | 30.2 µM (inactive) | 18.5 µM (inactive) |  | 15.1 µM (inactive)
8 | CCOC(=O)c1c(NC(=O)c2ccc(Br)cc2)sc2c1CCCC2 | > 100 µM (inactive) | > 100 µM (inactive) | > 100 µM (inactive) | > 100 µM (inactive) | > 100 µM (inactive) | > 100 µM (inactive) | 39.1 µM (inactive) | > 100 µM (inactive) | > 100 µM (inactive) |  | > 100 µM (inactive) |  | > 100 µM (inactive) | > 100 µM (inactive) | > 100 µM (inactive) | > 100 µM (inactive) |  | > 100 µM (inactive) |  | 
9 | Cc1csc2c1-n1cccc1C2=O | > 100 µM (inactive) | > 100 µM (inactive) | > 100 µM (inactive) | > 100 µM (inactive) | 64.3 µM (inactive) |  | > 100 µM (inactive) | > 100 µM (inactive) | > 100 µM (inactive) | > 100 µM (inactive) | > 100 µM (inactive) | > 100 µM (inactive) | > 100 µM (inactive) | 98.4 µM (inactive) | > 100 µM (inactive) | > 100 µM (inactive) | > 100 µM (inactive) | > 100 µM (inactive) | > 100 µM (inactive) | > 100 µM (inactive)
10 | COc1nc(N(C)C)nc2c1[n+](C)cn2C [HETEROMINE A] | > 100 µM (inactive) | 28.7 µM (inactive) | 30.3 µM (inactive) | > 100 µM (inactive) | > 100 µM (inactive) | 36.6 µM (inactive) | 27.7 µM (inactive) | > 100 µM (inactive) | > 100 µM (inactive) | 23.1 µM (inactive) | 47 µM (inactive) |  | 44.1 µM (inactive) | 84.1 µM (inactive) | 32.2 µM (inactive) | 41.7 µM (inactive) | > 100 µM (inactive) | 53.1 µM (inactive) |  | 84.5 µM (inactive)
11 | [N-]=[N+]=Nc1cc(=O)n2c3c(cccc13)CCC2 | > 100 µM (inactive) | > 100 µM (inactive) | > 100 µM (inactive) | > 100 µM (inactive) | 43.7 µM (inactive) | > 100 µM (inactive) | > 100 µM (inactive) | > 100 µM (inactive) | > 100 µM (inactive) | > 100 µM (inactive) | > 100 µM (inactive) | > 100 µM (inactive) | > 100 µM (inactive) | > 100 µM (inactive) |  |  |  | > 100 µM (inactive) | > 100 µM (inactive) | > 100 µM (inactive)
12 | C1=CN2C[n+]3cccc(OCc4ccccc4)c3N=C2C(OCc2ccccc2)=C1 | > 100 µM (inactive) | 0.344 µM (active) |  | 6.92 µM (inactive) | 24.2 µM (inactive) | 0.142 µM (active) |  | 16.4 µM (inactive) | 16.8 µM (inactive) | 12.3 µM (inactive) | 5.14 µM (inactive) | 4.81 µM (inactive) | 17.4 µM (inactive) | 44.9 µM (inactive) | 11.7 µM (inactive) | 5 µM (inactive) | > 100 µM (inactive) | 8.71 µM (inactive) | 5.83 µM (inactive) | 20.8 µM (inactive)
13 | O=C1CSC(c2ccc([N+](=O)[O-])cc2)N1c1nc(-c2ccc3c(c2)CCCC3)cs1 (stereo not drawn) | > 100 µM (inactive) | 94.6 µM (inactive) |  | > 100 µM (inactive) | > 100 µM (inactive) | > 100 µM (inactive) | > 100 µM (inactive) |  | 70.1 µM (inactive) | > 100 µM (inactive) | > 100 µM (inactive) | > 100 µM (inactive) | > 100 µM (inactive) | > 100 µM (inactive) | 39.5 µM (inactive) | 51.1 µM (inactive) |  | > 100 µM (inactive) | > 100 µM (inactive) | 25.1 µM (inactive)
14 | COc1ccc(N2C(=O)C3ON(C(C(N)=O)c4ccccc4)C(c4ccc(-c5ccccc5)cc4)C3C2=O)cc1 (stereo not drawn) | > 50 µM (inactive) | > 50 µM (inactive) | 10.2 µM (inactive) | > 50 µM (inactive) | > 50 µM (inactive) | > 50 µM (inactive) | > 50 µM (inactive) | 48.4 µM (inactive) | > 50 µM (inactive) | 31.8 µM (inactive) | > 50 µM (inactive) | > 50 µM (inactive) | > 50 µM (inactive) | > 50 µM (inactive) | > 50 µM (inactive) |  | > 50 µM (inactive) | > 50 µM (inactive) |  | 36.5 µM (inactive)
15 | CC1(C)S[C@H](CN)N[C@H]1C(=O)OC(c1ccccc1)c1ccccc1 | 84.3 µM (inactive) | 24.8 µM (inactive) |  | > 100 µM (inactive) | 47.2 µM (inactive) | 16.7 µM (inactive) | 38.5 µM (inactive) | 34.2 µM (inactive) | 35.2 µM (inactive) | 31.4 µM (inactive) |  | 27.3 µM (inactive) | 57.9 µM (inactive) | 63.5 µM (inactive) | 27.7 µM (inactive) | 17.2 µM (inactive) | 78.3 µM (inactive) | 17.4 µM (inactive) | 18.6 µM (inactive) | 17.4 µM (inactive)
